Measurements reported in ChEMBL document CHEMBL1148505, “Inhibition of Plasmodium falciparum fatty acid biosynthesis: evaluation of FabG, FabZ, and FabI as drug targets for flavonoids” (J Med Chem, 2006).
Activity calls are given as the source filed them. The rule behind the calls is not given here.

Target: T1, Fatty acid synthase (Plasmodium falciparum, UniProt Q965D7)
T1 sequence (Q965D7 whole entry): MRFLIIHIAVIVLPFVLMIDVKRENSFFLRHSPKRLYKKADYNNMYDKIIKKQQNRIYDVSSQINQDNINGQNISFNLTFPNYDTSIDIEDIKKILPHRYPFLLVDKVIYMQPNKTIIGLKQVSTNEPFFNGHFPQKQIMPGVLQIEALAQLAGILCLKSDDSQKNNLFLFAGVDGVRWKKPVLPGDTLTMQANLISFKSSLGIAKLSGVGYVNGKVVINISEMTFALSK
Test: Inhibition of FabZ

Point of comparison: `O=c1c(O)c(-c2ccc(O)c(O)c2)oc2cc(O)cc(O)c12` [QUERCETIN], IC50 1.5 µM. Against it:
- O=c1c(-c2ccc(O)cc2)coc2cc(O)ccc12 [DAIDZEIN] — 20-fold higher, 30 µM
- O=c1cc(-c2ccccc2)oc2ccc(O)cc12 [6-HYDROXYFLAVONE] — 20-fold higher, 30 µM
- O=C(O[C@@H]1Cc2c(O)cc(O)cc2O[C@@H]1c1ccc(O)c(O)c1)c1cc(O)c(O)c(O)c1 [EPICATECHIN GALLATE] — 3.8-fold lower, 0.4 µM
- O=c1c(O)c(-c2ccc(O)c(O)c2)oc2cc(O)ccc12 [FISETIN] — within 1.5-fold, 2 µM
- O=c1c(O)c(-c2ccc(O)cc2O)oc2cc(O)cc(O)c12 [MORIN] — 5.3-fold higher, 8 µM
- O=C(O[C@@H]1Cc2c(O)cc(O)cc2O[C@H]1c1ccc(O)c(O)c1)c1cc(O)c(O)c(O)c1 [(-)-CATECHINGALLATE] — 3.8-fold lower, 0.4 µM
- COc1cc(OC)c2c(c1C)O[C@H](c1ccccc1)CC2=O — 27-fold higher, 40 µM
- O=c1c(-c2ccc(O)cc2)coc2cc(O)cc(O)c12 [GENISTEIN] — 4.7-fold higher, 7 µM

`O=C(O[C@@H]1Cc2c(O)cc(O)cc2O[C@H]1c1ccc(O)c(O)c1)c1cc(O)c(O)c(O)c1` [(-)-CATECHINGALLATE] gave a Ki of 2.8 µM.

Target: T2, Enoyl-acyl-carrier protein reductase (Plasmodium falciparum, UniProt Q965D5)
T2 sequence (Q965D5 whole entry): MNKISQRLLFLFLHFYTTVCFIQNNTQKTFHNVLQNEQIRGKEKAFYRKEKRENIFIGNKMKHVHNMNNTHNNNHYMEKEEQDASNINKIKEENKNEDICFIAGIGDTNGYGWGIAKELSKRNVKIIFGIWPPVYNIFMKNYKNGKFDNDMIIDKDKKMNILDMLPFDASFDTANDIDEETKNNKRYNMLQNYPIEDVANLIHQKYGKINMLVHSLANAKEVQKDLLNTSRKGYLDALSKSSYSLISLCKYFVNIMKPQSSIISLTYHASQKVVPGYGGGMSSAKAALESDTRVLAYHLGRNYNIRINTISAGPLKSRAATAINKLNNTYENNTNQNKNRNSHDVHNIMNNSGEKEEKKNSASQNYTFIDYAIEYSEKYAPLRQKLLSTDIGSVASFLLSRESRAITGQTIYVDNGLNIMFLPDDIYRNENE
Test: Inhibition of FabI

Point of comparison: `O=c1c(O)c(-c2ccc(O)c(O)c2)oc2cc(O)ccc12` [FISETIN], IC50 1 µM. Against it:
- O=c1c(O)c(-c2ccc(O)c(O)c2)oc2cc(O)cc(O)c12 [QUERCETIN] — 1.5-fold higher, 1.5 µM
- O=C(O[C@@H]1Cc2c(O)cc(O)cc2O[C@@H]1c1ccc(O)c(O)c1)c1cc(O)c(O)c(O)c1 [EPICATECHIN GALLATE] — 5-fold lower, 0.2 µM
- O=c1c(O)c(-c2ccc(O)cc2O)oc2cc(O)cc(O)c12 [MORIN] — 5-fold higher, 5 µM
- O=C(O[C@@H]1Cc2c(O)cc(O)cc2O[C@H]1c1ccc(O)c(O)c1)c1cc(O)c(O)c(O)c1 [(-)-CATECHINGALLATE] — 3.3-fold lower, 0.3 µM

Compound `O=C(O[C@@H]1Cc2c(O)cc(O)cc2O[C@H]1c1ccc(O)c(O)c1)c1cc(O)c(O)c(O)c1` [(-)-CATECHINGALLATE] has a Ki of 0.04 µM.

Target: T3, 3-oxoacyl-acyl-carrier protein reductase (Plasmodium falciparum, UniProt Q965D6)
T3 sequence (Q965D6 whole entry): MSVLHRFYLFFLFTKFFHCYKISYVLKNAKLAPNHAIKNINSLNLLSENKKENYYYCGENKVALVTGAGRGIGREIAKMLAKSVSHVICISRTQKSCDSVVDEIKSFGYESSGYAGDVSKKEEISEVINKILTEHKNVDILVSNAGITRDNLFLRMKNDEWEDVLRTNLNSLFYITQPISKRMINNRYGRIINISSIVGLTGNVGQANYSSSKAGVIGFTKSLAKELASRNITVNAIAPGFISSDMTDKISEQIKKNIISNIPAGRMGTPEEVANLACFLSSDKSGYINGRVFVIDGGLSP
Test: Inhibition of FabG

Point of comparison: `O=c1c(O)c(-c2ccc(O)c(O)c2)oc2cc(O)cc(O)c12` [QUERCETIN], IC50 5.4 µM. Against it:
- O=C(O[C@@H]1Cc2c(O)cc(O)cc2O[C@@H]1c1ccc(O)c(O)c1)c1cc(O)c(O)c(O)c1 [EPICATECHIN GALLATE] — 5.4-fold lower, 1 µM
- O=c1c(O)c(-c2ccc(O)c(O)c2)oc2cc(O)ccc12 [FISETIN] — within 1.5-fold, 4.1 µM
- O=c1c(O)c(-c2ccc(O)cc2O)oc2cc(O)cc(O)c12 [MORIN] — 2.3-fold lower, 2.3 µM
- O=C(O[C@@H]1Cc2c(O)cc(O)cc2O[C@H]1c1ccc(O)c(O)c1)c1cc(O)c(O)c(O)c1 [(-)-CATECHINGALLATE] — 5.4-fold lower, 1 µM

Test system: Plasmodium falciparum
Test: Antiplasmodial activity against chloroquine-sensitive Plasmodium falciparum NF54
Type: functional, organism-based

Point of comparison: `O=c1c(O)c(-c2ccc(O)c(O)c2)oc2cc(O)ccc12` [FISETIN], IC50 8.2 µM. Against it:
- O=c1c(O)c(-c2ccc(O)c(O)c2)oc2cc(O)cc(O)c12 [QUERCETIN] — within 1.5-fold, 10 µM
- O=c1c(-c2ccc(O)cc2)coc2cc(O)ccc12 [DAIDZEIN] — 13-fold higher, 104 µM
- O=c1cc(-c2ccccc2)oc2ccc(O)cc12 [6-HYDROXYFLAVONE] — 1.5-fold lower, 5.3 µM
- O=C(O[C@@H]1Cc2c(O)cc(O)cc2O[C@@H]1c1ccc(O)c(O)c1)c1cc(O)c(O)c(O)c1 [EPICATECHIN GALLATE] — 4.9-fold higher, 40 µM
- O=c1c(O)c(-c2ccc(O)cc2O)oc2cc(O)cc(O)c12 [MORIN] — 13-fold higher, 110 µM
- O=C(O[C@@H]1Cc2c(O)cc(O)cc2O[C@H]1c1ccc(O)c(O)c1)c1cc(O)c(O)c(O)c1 [(-)-CATECHINGALLATE] — 2.6-fold lower, 3.2 µM
- COc1cc(OC)c2c(c1C)O[C@H](c1ccccc1)CC2=O — 2.4-fold higher, 19.8 µM
- O=c1c(-c2ccc(O)cc2)coc2cc(O)cc(O)c12 [GENISTEIN] — 4.7-fold higher, 38.2 µM

Test system: Plasmodium falciparum
Test: Antiplasmodial activity against chloroquine-resistant Plasmodium falciparum K1
Type: functional, organism-based

Point of comparison: `O=c1c(O)c(-c2ccc(O)cc2O)oc2cc(O)cc(O)c12` [MORIN], IC50 16.1 µM. Against it:
- O=c1c(O)c(-c2ccc(O)c(O)c2)oc2cc(O)cc(O)c12 [QUERCETIN] — 1.8-fold lower, 8.9 µM
- O=C(O[C@@H]1Cc2c(O)cc(O)cc2O[C@@H]1c1ccc(O)c(O)c1)c1cc(O)c(O)c(O)c1 [EPICATECHIN GALLATE] — within 1.5-fold, 11.3 µM
- O=c1c(O)c(-c2ccc(O)c(O)c2)oc2cc(O)ccc12 [FISETIN] — 2.5-fold lower, 6.5 µM
- O=C(O[C@@H]1Cc2c(O)cc(O)cc2O[C@H]1c1ccc(O)c(O)c1)c1cc(O)c(O)c(O)c1 [(-)-CATECHINGALLATE] — 40-fold lower, 0.4 µM

Target: T4, Enoyl-acyl-carrier protein reductase (Plasmodium falciparum) (UniProt Q965D5)
T4 sequence (whole entry): T2 sequence (Q965D5 whole entry)
Test: Inhibition of FabI at 100 uM

For `O=c1c(-c2ccc(O)cc2)coc2cc(O)ccc12` [DAIDZEIN], the Activity was “inactive”.
For `O=c1cc(-c2ccccc2)oc2ccc(O)cc12` [6-HYDROXYFLAVONE], the Activity was “inactive”.
For `COc1cc(OC)c2c(c1C)O[C@H](c1ccccc1)CC2=O`, the Activity was “inactive”.
For `O=c1c(-c2ccc(O)cc2)coc2cc(O)cc(O)c12` [GENISTEIN], the Activity was “inactive”.

Target: T5, 3-oxoacyl-acyl-carrier protein reductase (Plasmodium falciparum) (UniProt Q965D6)
T5 sequence (whole entry): T3 sequence (Q965D6 whole entry)
Test: Inhibition of FabG at 100 uM

With `O=c1c(-c2ccc(O)cc2)coc2cc(O)ccc12` [DAIDZEIN] the Activity was “inactive”.
`O=c1cc(-c2ccccc2)oc2ccc(O)cc12` [6-HYDROXYFLAVONE] was tested, and the Activity was “inactive”.
`COc1cc(OC)c2c(c1C)O[C@H](c1ccccc1)CC2=O` was tested, and the Activity was “inactive”.
`O=c1c(-c2ccc(O)cc2)coc2cc(O)cc(O)c12` [GENISTEIN] was tested, and the Activity was “inactive”.

Target: T3, 3-oxoacyl-acyl-carrier protein reductase
Test: Inhibition of FabG in presence of acetoacetyl-CoA

`O=C(O[C@@H]1Cc2c(O)cc(O)cc2O[C@H]1c1ccc(O)c(O)c1)c1cc(O)c(O)c(O)c1` [(-)-CATECHINGALLATE] was tested, and the Ki was 6.4 µM.

Target: T3, 3-oxoacyl-acyl-carrier protein reductase
Test: Inhibition of FabG in presence of NADPH

Compound `O=C(O[C@@H]1Cc2c(O)cc(O)cc2O[C@H]1c1ccc(O)c(O)c1)c1cc(O)c(O)c(O)c1` [(-)-CATECHINGALLATE] has a Ki of 2.8 µM.
